According to ChEMBL document CHEMBL1201862, “PubChem BioAssay data set” (2004):
Active and inactive are the calls of the source.

Columns and labels:
[1] = biological target: T1, Ubiquitin-conjugating enzyme E2 N (Homo sapiens, UniProt P61088); format: functional
T1 sequence (P61088 whole entry): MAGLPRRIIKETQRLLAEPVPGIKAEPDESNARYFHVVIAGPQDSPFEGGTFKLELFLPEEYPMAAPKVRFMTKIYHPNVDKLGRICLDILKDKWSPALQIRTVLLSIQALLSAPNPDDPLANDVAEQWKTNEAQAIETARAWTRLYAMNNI

[2] = biological target: T2, Apoptotic protease-activating factor 1 (Homo sapiens, UniProt O14727); format: functional
T2 sequence (O14727 whole entry): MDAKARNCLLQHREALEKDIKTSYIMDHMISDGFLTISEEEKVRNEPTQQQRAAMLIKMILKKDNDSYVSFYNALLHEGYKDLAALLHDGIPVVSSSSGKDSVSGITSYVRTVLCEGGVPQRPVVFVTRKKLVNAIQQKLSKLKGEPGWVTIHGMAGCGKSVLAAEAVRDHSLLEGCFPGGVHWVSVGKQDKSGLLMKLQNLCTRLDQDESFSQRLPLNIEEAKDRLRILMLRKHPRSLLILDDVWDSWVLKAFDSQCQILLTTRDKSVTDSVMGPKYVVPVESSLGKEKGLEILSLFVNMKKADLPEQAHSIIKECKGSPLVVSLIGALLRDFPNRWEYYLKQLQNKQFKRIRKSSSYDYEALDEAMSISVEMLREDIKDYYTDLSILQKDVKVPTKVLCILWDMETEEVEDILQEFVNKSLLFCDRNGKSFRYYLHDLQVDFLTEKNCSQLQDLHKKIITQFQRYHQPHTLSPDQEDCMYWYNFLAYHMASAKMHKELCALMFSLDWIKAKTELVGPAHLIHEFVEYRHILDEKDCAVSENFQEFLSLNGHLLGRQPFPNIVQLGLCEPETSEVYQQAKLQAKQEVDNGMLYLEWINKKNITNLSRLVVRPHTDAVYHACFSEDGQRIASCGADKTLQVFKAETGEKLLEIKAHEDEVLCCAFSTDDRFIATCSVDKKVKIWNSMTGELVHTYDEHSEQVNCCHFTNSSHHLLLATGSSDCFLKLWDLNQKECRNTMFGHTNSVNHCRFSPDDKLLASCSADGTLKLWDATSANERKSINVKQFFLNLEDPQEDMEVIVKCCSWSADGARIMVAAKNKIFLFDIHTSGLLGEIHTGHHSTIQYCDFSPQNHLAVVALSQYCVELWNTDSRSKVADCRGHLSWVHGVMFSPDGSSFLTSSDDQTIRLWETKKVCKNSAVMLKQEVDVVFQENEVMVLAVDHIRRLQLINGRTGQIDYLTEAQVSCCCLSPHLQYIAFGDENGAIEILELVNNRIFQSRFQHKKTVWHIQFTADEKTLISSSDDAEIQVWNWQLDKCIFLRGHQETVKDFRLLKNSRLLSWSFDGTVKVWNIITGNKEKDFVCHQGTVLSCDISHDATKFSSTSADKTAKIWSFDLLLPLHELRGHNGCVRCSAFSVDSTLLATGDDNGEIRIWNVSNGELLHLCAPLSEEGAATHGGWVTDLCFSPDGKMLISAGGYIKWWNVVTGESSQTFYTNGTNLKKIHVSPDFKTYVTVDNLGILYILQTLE

Bcl-2-related protein A1 = biological target: T3, Bcl-2-related protein A1 (Mus musculus, UniProt Q07440); format: functional;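 note: confirmatory dose–response counterscreen on Bfl-1, used to check hits from a UBC13 polyubiquitin inhibitor campaign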
T3 sequence (Q07440 whole entry): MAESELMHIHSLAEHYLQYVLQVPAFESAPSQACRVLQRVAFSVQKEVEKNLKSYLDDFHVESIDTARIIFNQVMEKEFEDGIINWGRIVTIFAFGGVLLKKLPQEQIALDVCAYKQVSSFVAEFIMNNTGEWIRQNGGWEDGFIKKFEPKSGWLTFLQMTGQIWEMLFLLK

[3] = biological target: T1, Ubiquitin-conjugating enzyme E2 N; format: functional; remark: listed apart in the source
HEK293 [4] = assay: cells; format: functional, cell-based; details: Homo sapiens
HEK293 [5] = assay: NOD1 signaling inhibitors, primary screen, cell-based, luminescence, uHTS (AID 1578); format: functional; details: Homo sapiens
Genome polyprotein = Genome polyprotein (dengue virus type 2, UniProt P29990); assay: Dengue-2 NS5 methyltransferase inhibitors, primary screen, biochemical, confirmation dose response (AID 588689); format: functional
Vero [6] = assay: Vero cell cytotoxicity, cytotoxicity control for flavivirus capping enzyme inhibitors (AID 588742); format: functional; details: Chlorocebus sabaeus
HEK293 [7] = assay: cells; format: functional, cell-based; details: Homo sapiens; remark: listed apart in the source
HEK293 [8] = assay: NOD2 signaling inhibitors in MDP-stimulated cells, cell-based, uHTS, luminescence (AID 2001); format: functional; details: Homo sapiens
[9] = biological target: Photoreceptor-specific nuclear receptor (Homo sapiens, UniProt Q9Y5X4); format: functional, cell-based;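 note: CHO-S cells with Gal4-NCOR and VP16-NR2E3 two-hybrid luciferase reporter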
[10] = biological target: Nucleotide-binding oligomerization domain-containing protein 1 (Homo sapiens, UniProt Q9Y239); assay: NOD1 signaling inhibitors, SAR follow-up, revised (AID 2333); format: functional
[11] = biological target: Nucleotide-binding oligomerization domain-containing protein 2 (Homo sapiens, UniProt Q9HC29); assay: PubChem AID 2334; format: functional
HEK293 [12] = assay: cells; details: Homo sapiens
Tumor necrosis factor = Tumor necrosis factor (Homo sapiens, UniProt P01375); assay: TNFa-triggered NF-kB activation inhibitors, SAR follow-up, cell-based, revised (AID 2337); format: functional
[13] = cytotoxicity in HMLE control line with eGFP shRNA, dose response, counter-screen for HMLE_sh_ECad selective toxicity project, cell-based, HMLE_sh_eGFP, luminescence (AID 463074); format: functional, Homo sapiens;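 note: HMLE human mammary epithelial cells expressing control shRNA against eGFP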
[14] = Luminescence Cell-Based Dose Retest to Confirm Inhibitors of Cancer Stem Cells. [Related pubchem assays (depositor defined):AID2717, AID2721]; format: functional; details: Homo sapiens
[15] = system: Streptococcus sp. 'group A'; assay: growth inhibition of control SK(-) GAS strain, dose response, counter-screen for streptokinase expression inhibitor project, luminescence, kanamycin, BacTiterGlo, confirmation (AID 1900); format: functional, organism-based
[16] = biological target: T4, E3 ubiquitin-protein ligase XIAP (Homo sapiens, UniProt P98170); assay: Counter Screen using XIAP-Bir3 for Chemical Antagonists of Bir1/2 domains of IAP-family anti-apoptotic proteins. [Related pubchem assays (depositor defined):AID1018, AID1449, AID1514, AID1638, AID1749, AID1750, AID488957, AID488963]
Streptococcus = assay: Group A Streptococcus viability loss, dose response, counter-screen for streptokinase expression inhibitor project, luminescence, BacTiterGlo (AID 1915); format: functional, organism-based;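 note: potency for reduction of bacterial viability or growth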
Streptokinase A = biological target: T5, Streptokinase A (Streptococcus pyogenes serotype M1, UniProt P10520); assay: S. pyogenes streptokinase expression inhibitors, potency, dose response, plasminogen activation absorbance, OD405 (AID 1914); format: functional, Streptococcus pyogenes M1 GAS;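 note: secreted streptokinase activity via plasminogen activation per viability signal from cell pellet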
T5 sequence (P10520 whole entry): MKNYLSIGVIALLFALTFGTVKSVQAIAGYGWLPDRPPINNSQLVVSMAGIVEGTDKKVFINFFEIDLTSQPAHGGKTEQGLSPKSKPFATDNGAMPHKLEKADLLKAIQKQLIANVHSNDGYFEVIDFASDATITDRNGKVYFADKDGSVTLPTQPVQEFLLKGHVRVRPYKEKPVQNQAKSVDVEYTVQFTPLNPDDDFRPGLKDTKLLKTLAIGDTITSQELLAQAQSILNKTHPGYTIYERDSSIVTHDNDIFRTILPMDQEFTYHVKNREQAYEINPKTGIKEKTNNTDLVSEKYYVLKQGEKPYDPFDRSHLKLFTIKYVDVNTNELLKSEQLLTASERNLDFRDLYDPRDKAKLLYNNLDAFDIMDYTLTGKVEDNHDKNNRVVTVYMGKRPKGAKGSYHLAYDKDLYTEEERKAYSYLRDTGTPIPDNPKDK

[17] = biological target: T4, E3 ubiquitin-protein ligase XIAP; assay: XIAP antagonists, biochemical, IAP family, fluorescence polarization (AID 1018); format: functional
[18] = inhibitors of Vif binding to APOBEC3G peptide, primary screen, biochemical, TR-FRET, GST-Vif 1-94, biotin-A3G peptide, dose response retest (AID 1117319); format: functional;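 note: TR-FRET signal of purified GST-Vif binding a biotinylated A3G peptide; inhibitors lower the FRET signal by blocking Vif and A3G binding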
Jurkat = assay: antigen receptor-induced NF-kB inhibitors, dose response, Jurkat, luciferase reporter, luminescence, B- and T-cell (AID 489004); format: functional, cell-based; details: Homo sapiens;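 note: NF-kB luciferase reporter Jurkat cells stimulated with PMA plus ionomycin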
[19] = cytotoxicity in HEK-293T NF-kB-Luc cells, dose response, cytotoxicity control for B/T-cell NF-kB inhibitor project, cell-based, uHTS hits (AID 489019); format: functional;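 note: IC50 reflects cytotoxicity as loss of cell viability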
Vero [20] = assay: cells; format: functional, cell-based; details: Chlorocebus sabaeus
HEK293 [21] = assay: cells; details: Homo sapiens; remark: listed apart in the source
HEK293 [22] = assay: cells; details: Homo sapiens; remark: listed apart in the source
Vero [23] = assay: cells; format: functional; details: Chlorocebus sabaeus
[24] = Luminescence Cell-Based Dose Response HTS to Identify Activators of Luciferase Translation or Activity in H4 […] Cells. [Related pubchem assays: 1829 (Project Summary), 1814 (Primary HTS)]; format: functional
[25] = biological target: T6, Microphthalmia-associated transcription factor (Homo sapiens, UniProt O75030); assay: TRPM1 promoter luciferase signal decrease, dose response, MITF inhibitor project, cell-based, SK-MEL-5, cherry-picked, set 3 (AID 493073); format: functional
T6 sequence (O75030 whole entry): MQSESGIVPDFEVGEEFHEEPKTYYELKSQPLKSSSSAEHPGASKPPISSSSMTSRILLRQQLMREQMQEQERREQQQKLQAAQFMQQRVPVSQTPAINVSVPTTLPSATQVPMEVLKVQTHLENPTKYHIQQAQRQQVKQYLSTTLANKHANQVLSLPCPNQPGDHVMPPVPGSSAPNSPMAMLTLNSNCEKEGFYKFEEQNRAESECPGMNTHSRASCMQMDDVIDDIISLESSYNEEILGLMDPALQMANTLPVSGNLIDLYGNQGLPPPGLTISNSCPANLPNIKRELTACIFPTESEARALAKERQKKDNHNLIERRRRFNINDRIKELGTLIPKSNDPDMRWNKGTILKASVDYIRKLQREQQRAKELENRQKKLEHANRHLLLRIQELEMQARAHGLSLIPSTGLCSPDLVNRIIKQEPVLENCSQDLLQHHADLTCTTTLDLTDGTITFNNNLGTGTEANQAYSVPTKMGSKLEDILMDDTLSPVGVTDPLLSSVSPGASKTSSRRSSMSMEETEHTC

H4 = assay: Luminescence Cell-Based Dose Response HTS to Identify Activators of 5'UTR Stem-Loop Driven Prion Protein mRNA Translation in H4 Neuroglioblastoma Cells. [Related pubchem assays: 1829 (Project Summary), 1814 (Primary HTS)]; format: functional; details: Homo sapiens

T4 sequence (P98170 whole entry): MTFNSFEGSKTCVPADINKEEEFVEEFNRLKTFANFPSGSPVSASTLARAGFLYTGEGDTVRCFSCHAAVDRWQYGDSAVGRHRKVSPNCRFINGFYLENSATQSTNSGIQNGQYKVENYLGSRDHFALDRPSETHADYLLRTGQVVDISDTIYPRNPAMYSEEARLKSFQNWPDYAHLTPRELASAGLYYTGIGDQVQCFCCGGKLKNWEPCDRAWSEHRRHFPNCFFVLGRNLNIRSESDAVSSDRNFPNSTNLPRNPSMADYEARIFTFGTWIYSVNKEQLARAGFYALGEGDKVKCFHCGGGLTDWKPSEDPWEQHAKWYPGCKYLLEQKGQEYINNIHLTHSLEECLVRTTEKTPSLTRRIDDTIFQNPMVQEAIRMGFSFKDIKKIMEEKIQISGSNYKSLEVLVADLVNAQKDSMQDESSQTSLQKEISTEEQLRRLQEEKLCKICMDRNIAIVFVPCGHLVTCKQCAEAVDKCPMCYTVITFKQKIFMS
Genome polyprotein, sequence (P29990 2492-3391 limits assumed): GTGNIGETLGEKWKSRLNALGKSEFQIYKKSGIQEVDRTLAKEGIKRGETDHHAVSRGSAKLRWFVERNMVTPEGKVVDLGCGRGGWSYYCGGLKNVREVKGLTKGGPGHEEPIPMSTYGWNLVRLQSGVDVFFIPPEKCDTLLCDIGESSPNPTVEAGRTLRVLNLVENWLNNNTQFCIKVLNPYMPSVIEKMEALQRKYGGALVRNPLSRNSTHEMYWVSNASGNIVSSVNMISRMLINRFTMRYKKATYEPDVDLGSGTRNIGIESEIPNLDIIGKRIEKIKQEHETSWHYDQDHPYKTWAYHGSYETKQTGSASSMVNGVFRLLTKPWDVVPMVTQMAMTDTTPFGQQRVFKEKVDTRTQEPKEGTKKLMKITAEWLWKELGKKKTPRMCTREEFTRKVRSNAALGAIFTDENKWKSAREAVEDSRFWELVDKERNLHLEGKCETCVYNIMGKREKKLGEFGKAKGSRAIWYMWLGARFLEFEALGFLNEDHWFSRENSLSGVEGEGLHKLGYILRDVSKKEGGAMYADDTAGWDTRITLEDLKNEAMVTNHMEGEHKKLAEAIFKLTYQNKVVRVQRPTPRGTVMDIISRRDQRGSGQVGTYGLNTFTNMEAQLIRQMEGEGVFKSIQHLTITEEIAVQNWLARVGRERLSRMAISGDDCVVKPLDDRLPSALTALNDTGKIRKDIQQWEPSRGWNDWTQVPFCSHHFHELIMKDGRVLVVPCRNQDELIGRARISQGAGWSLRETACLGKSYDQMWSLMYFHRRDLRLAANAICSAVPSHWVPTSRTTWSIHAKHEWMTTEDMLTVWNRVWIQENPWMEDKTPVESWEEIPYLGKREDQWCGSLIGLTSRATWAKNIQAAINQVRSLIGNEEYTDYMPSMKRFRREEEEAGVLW
Photoreceptor-specific nuclear receptor, sequence (Q9Y5X4 whole entry, the tested form may be a part): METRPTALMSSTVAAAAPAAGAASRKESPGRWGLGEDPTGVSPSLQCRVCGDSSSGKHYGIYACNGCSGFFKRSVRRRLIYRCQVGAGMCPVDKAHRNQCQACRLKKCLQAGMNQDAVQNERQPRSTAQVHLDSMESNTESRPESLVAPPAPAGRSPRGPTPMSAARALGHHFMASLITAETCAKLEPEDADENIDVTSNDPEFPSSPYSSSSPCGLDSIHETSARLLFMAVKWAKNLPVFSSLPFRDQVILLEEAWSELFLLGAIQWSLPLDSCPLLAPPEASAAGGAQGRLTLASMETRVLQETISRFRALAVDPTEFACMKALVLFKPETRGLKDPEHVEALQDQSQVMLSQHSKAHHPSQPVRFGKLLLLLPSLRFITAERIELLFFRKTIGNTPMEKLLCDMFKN
Nucleotide-binding oligomerization domain-containing protein 2, sequence (Q9HC29 whole entry, the tested form may be a part): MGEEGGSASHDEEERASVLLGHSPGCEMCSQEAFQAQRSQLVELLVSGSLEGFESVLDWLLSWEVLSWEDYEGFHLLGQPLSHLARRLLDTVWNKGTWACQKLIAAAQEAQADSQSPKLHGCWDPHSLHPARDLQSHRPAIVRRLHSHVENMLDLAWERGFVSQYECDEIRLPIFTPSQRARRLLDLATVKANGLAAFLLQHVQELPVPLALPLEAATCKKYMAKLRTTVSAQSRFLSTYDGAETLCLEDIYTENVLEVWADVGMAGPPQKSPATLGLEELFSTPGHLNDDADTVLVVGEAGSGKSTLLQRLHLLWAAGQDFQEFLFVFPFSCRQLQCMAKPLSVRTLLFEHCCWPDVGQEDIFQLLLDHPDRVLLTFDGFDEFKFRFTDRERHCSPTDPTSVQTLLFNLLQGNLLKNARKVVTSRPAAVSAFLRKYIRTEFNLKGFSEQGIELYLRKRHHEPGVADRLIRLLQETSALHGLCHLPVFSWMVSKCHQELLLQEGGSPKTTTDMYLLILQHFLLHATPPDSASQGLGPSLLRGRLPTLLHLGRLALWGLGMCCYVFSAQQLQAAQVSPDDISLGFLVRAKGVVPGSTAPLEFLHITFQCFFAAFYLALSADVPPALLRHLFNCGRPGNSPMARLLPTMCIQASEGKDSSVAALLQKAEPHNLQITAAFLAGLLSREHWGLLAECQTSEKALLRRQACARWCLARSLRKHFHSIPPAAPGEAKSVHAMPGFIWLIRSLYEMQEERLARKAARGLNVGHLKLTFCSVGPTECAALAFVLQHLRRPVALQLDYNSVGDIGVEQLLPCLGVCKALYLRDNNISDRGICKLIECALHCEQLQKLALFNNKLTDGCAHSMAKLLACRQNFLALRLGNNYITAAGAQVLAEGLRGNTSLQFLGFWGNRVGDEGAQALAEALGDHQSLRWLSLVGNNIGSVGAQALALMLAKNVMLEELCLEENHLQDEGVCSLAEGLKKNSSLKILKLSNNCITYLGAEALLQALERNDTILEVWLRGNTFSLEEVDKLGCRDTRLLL
Tumor necrosis factor, sequence (P01375 whole entry): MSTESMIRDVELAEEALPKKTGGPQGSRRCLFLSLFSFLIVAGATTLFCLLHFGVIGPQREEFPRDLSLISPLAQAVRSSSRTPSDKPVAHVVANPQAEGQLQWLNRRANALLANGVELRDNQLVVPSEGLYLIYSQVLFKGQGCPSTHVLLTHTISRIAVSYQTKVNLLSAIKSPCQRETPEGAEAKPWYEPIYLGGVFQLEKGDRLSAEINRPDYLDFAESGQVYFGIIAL
Nucleotide-binding oligomerization domain-containing protein 1, sequence (Q9Y239 whole entry, the tested form may be a part): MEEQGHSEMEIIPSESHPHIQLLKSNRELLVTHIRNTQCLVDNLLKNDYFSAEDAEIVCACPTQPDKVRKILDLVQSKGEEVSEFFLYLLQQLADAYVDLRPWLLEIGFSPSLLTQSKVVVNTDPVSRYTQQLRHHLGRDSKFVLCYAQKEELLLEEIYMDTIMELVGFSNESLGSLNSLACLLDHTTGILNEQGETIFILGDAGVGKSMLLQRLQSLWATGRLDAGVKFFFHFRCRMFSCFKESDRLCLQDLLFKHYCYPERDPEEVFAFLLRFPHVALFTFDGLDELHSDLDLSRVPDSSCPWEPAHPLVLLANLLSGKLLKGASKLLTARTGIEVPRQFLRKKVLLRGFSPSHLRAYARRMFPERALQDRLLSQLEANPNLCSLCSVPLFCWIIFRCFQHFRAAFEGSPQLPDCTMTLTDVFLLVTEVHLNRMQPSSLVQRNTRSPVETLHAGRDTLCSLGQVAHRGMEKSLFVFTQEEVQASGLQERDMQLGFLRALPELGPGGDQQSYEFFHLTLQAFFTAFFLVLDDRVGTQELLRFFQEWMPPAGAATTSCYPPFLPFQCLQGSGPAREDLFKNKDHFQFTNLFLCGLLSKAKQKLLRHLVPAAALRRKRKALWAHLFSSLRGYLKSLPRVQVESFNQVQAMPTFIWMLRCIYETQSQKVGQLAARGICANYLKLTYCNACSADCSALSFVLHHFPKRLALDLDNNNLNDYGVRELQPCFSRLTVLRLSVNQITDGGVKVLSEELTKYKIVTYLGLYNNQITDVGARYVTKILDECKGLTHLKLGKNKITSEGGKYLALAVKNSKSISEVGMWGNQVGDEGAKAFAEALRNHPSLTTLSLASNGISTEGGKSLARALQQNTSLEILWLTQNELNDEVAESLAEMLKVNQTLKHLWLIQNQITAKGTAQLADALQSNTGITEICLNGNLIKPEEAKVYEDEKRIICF

Structure (SMILES): COc1ccc(C(CNC(=O)c2ccc(S(=O)(=O)Nc3ccccc3F)cc2)N(C)C)cc1 (stereo not given)
- IC50 [1]: 6.59 µM (active)
- IC50 [2]: > 100 µM (inactive)
- IC50 (Bcl-2-related protein A1): > 20 µM (inactive)
- IC50 [3]: 4.54 µM (active)

Structure (SMILES): COc1ccc(/C=C/C(=O)Nc2c(C)nn(C)c2C)cc1COc1ccc(Cl)cc1Br
- IC50 [1]: 17.4 µM (active)
- IC50 (Bcl-2-related protein A1): 3.32 µM (active)
- IC50 [3]: 15.6 µM (active)

Structure (SMILES): CC(C)c1ccc(-c2csc(NC(=O)c3cccs3)c2C(=O)O)cc1
- IC50 (HEK293 [4]): > 20 µM (inactive)
- EC50 (HEK293 [5]): 8.7 µM (active)
- IC50 (Genome polyprotein): 39.9 µM (active)
- CC50 (Vero [6]): > 40 µM (active)
- IC50 (HEK293 [7]): > 20 µM (inactive)
- IC50 (HEK293 [8]): 9.22 µM (active)
- IC50 [9]: 6.83 µM (active)

Structure (SMILES): Cn1nccc1C(=O)N[C@@H]1CCCc2c1cnn2-c1ccccc1F
- IC50 [10]: 18.7 µM (active)
- IC50 [11]: > 20 µM (inactive)
- IC50 (HEK293 [12]): > 20 µM (inactive)
- IC50 (Tumor necrosis factor): > 20 µM (inactive)

Structure (SMILES): NC(=O)CC(NC(=O)Cc1cccc2ccccc12)c1ccc(NCCOc2ccccc2)c([N+](=O)[O-])c1 (stereo not given)
- AC50 [13]: 22.9 µM (active)
- AC50 [14]: 147 µM (active)

Structure (SMILES): COc1ccc(CCNC(=O)CSc2nncn2N)cc1OC
- EC50 [15]: > 150 µM (not active)
- IC50 [16]: > 100 µM (inactive)
- EC50 (Streptococcus): > 150 µM (not active)
- EC50 (Streptokinase A): > 150 µM (not active)
- IC50 [17]: > 100 µM (not active)

Structure (SMILES): O=C(O)CN1C(=O)COc2cc(S(=O)(=O)N3CCCC3)ccc21
- IC50 [18]: > 100 µM (active)
- IC50 [16]: > 100 µM (inactive)
- IC50 [17]: > 100 µM (not active)

Structure (SMILES): O=C(NCCc1ccc(Cl)cc1Cl)c1cc([N+](=O)[O-])cnc1O
- AC50 [13]: 61.9 µM (active)
- AC50 [14]: 4.14 µM (active)

Structure (SMILES): O=C(Nc1nc(-c2ccc(F)c(F)c2)cs1)c1ccc(OCC2CCCO2)cc1 (stereo not given)
- IC50 (Jurkat): > 80 µM (inactive)
- IC50 [19]: > 80 µM (inactive)

Structure (SMILES): CCOC(=O)c1c(-c2cccc3ccccc23)csc1NC(=O)C1C2CCC(O2)C1C(=O)O (stereo not given)
- IC50 (Vero [20]): > 25 µM (active)

Structure (SMILES): C=CCNc1sc(C(=O)c2ccccc2)c(N)c1-c1nc2ccccc2s1
- EC50 (HEK293 [21]): > 59.7 µM (inactive)
- EC50 (HEK293 [22]): > 59.7 µM (inactive)

Structure (SMILES): N#C/C(=C\C=C\c1ccccc1[N+](=O)[O-])C(=O)NCc1ccccc1
- CC50 (Vero [23]): 15.3 µM (active)
- IC50 (Vero [20]): > 25 µM (active)
- EC50 [24]: > 120 µM (not active)
- AC50 [25]: 14.7 µM (active)
- EC50 (H4): > 120 µM (not active)
